Source: patent publication US11478478B2, “2,3-disubstituted 1-acyl-4-amino-1,2,3,4-tetrahydroquinoline derivatives and their use as bromodomain inhibitors” (GLAXOSMITHKLINE INTELLECTUAL PROPERTY (NO.2) LIMITED, priority 2013, dated 2022)
Counter-ions that a name gives are not always drawn.

Molecular target: T1, BRD4 BD2 (Homo sapiens, UniProt O60885, Y97A)
T1 construct: BRD4 (1-477) (Y97A) and (Y390A); made in house; host or cells: E. coli (pET15b vector)
Test: TR-FRET binding assay, BRD4 BD2 (BD1-mutated protein)
Settings: read-out: pIC50 in the BRD4 BD2 assay (converted)
Outline: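 Displacement of Alexa Fluor647-labelled bromodomain ligand (at Kd) from 10 nM His-tagged BRD4 (1-477, Y97A) read by Eu-anti-His TR-FRET (665/615 ratio) in pH 7.4 HEPES buffer, 0.5% DMSO. Compound preincubated 30 min at rt, detection ≥30 min. pIC50 derived from four-parameter fit after normalisation to controls.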

IC50	Structure (SMILES)
100 nM	CC(=O)N1c2ccc(C3=CCNCC3)cc2[C@H](Nc2ccc(C#N)cc2)[C@@H](C)[C@@H]1C1CC1 (racemic) [Example 192, rac-4-(((2S,3R,4R)-1-acetyl-2-cyclopropyl-3-methyl-6-(1,2,3,6-tetrahydropyridin-4-yl)-1,2,3,4-tetrahydroquinolin-4-yl)amino)benzonitrile]
100 nM	CC(=O)N1c2ccccc2[C@H](Nc2cccc(C)c2)[C@@H](C)[C@@H]1C (racemic) [Example 16, rac-1-((2S,3R,4R)-2,3-dimethyl-4-(m-tolylamino)-3,4-dihydroquinolin-1(2H)-yl)ethanone]
100 nM	CC(=O)N1c2ccc(C(=O)NCCO)cc2[C@H](Nc2ccc(F)cn2)[C@@H](C)[C@@H]1C [Example 479, (2S,3R,4R)-1-acetyl-4-((5-fluoropyridin-2-yl)amino)-N-(2-hydroxyethyl)-2,3-dimethyl-1,2,3,4-tetrahydroquinoline-6-carboxamide]
100 nM	CC(=O)N1c2ccc(C3=CCOCC3)cc2[C@H](Nc2ccc(C#N)cn2)[C@@H](C)[C@@H]1C1CC1 (racemic) [Example 181, rac-6-(((2S,3R,4R)-1-acetyl-2-cyclopropyyl-6-(3,6-dihydro-2H-pyran-4-yl)-3-methyl-1,2,3,4-tetrahydroquinolin-4-yl)amino)nicotinonitrile]
1000 to 100000 nM	CNC(=O)c1ccc(N[C@H]2c3cc(C4CCNCC4)ccc3N(C(C)=O)[C@@H](C)[C@@H]2C)cc1 (racemic) [Example 188, rac-4-(((2S,3R,4R)-1-acetyl-2,3-dimethyl-6-(piperidin-4-yl)-1,2,3,4-tetrahydroquinolin-4-yl)amino)-N-methylbenzamide]
1000 to 100000 nM	CC(=O)N1c2cc(O)ccc2[C@H](Nc2cccc(C)n2)[C@@H](C)[C@@H]1C1CC1 (racemic) [Example 65, rac-1-((2S,3R,4R)-2-cyclopropyl-7-hydroxy-3-methyl-4-((6-methylpyridin-2-yl)amino)-3,4-dihydroquinolin-1(2H)-yl)ethanone]
1000 to 100000 nM	CC(=O)N1c2ccc(N3CCOCC3)cc2[C@H](Nc2cccc(O)n2)[C@@H](C)[C@@H]1C1CC1 (racemic) [Example 210, rac-1-((2S,3R,4R)-2-cyclopropyl-4-((6-hydroxypyridin-2-yl)amino)-3-methyl-6-morpholino-3,4-dihydroquinolin-1(2H)-yl)ethanone]
100 nM	CCNC(=O)c1ccc2c(c1)[C@H](Nc1cccc(C)n1)[C@@H](C)[C@H](C1CC1)N2C(C)=O [Example 248, (2S,3R,4R)-1-acetyl-2-cyclopropyyl-N-ethyl-3-methyl-4-((6-methylpyridin-2-yl)amino)-1,2,3,4-tetrahydroquinoline-6-carboxamide]
100 nM	CC(=O)N1c2ccc(N3CCNC(C)C3)cc2[C@H](Nc2ccccc2)[C@@H](C)[C@@H]1C (mixture of isomers) [Example 72, 1-((rac-2S,3R,4R)-2,3-dimethyl-6-(3-methylpiperazin-1-yl)-4-(phenylamino)-3,4-dihydroquinolin-1(2H)-yl)ethanone, formate salt]
1000 to 100000 nM	CC(=O)N1c2ccc(C(N)=O)cc2[C@@H](Nc2nccc(C)n2)[C@H](C)[C@H]1C1CC1 (single isomer, unassigned) [Example 397]
1000 to 100000 nM	CC(=O)N1c2ccc(F)cc2[C@H](Nc2ccnc(O)n2)[C@@H](C)[C@@H]1C [Example 517, 1-((2S,3R,4R)-6-fluoro-4-((2-hydroxypyrimidin-4-yl)amino)-2,3-dimethyl-3,4-dihydroquinolin-1(2H)-yl)ethanone]
100 nM	CC(=O)N1c2ccc(C(N)=O)cc2[C@H](Nc2ccc(Cl)cn2)[C@@H](C)[C@@H]1C1CC1 [Example 379, (2S,3R,4R)-1-acetyl-4-((5-chloropyridin-2-yl)amino)-2-cyclopropyl-3-methyl-1,2,3,4-tetrahydroquinoline-6-carboxamide]
100 nM	CC(=O)N1c2ccc(C(=O)N[C@@H]3CCOC3)cc2[C@H](Nc2cccc(C)n2)[C@@H](C)[C@@H]1C1CC1 [Example 261, (2S,3R,4R)-1-acetyl-2-cyclopropyl-3-methyl-4-((6-methylpyridin-2-yl)amino)-N—((R)-tetrahydrofuran-3-yl)-1,2,3,4-tetrahydroquinoline-6-carboxamide]
100 nM	CC(=O)N1c2ccc(N3CCOCC3)cc2[C@H](Nc2ccccc2)[C@@H](C)[C@@H]1C1CC1 [Example 91a, 1-((2S,3R,4R)-2-cyclopropyyl-3-methyl-6-morpholino-4-(phenylamino)-3,4-dihydroquinolin-1(2H)-yl)ethanone]
100 nM	CNCCn1cc(-c2ccc3c(c2)[C@H](Nc2ccc(C#N)cc2)[C@@H](C)[C@H](C2CC2)N3C(C)=O)cn1 (racemic) [Example 134, rac-4-(((2S,3R,4R)-1-acetyl-2-cyclopropyl-3-methyl-6-(1-(2-(methylamino)ethyl)-1H-pyrazol-4-yl)-1,2,3,4-tetrahydroquinolin-4-yl)amino)benzonitrile]
100 nM	CC(=O)N1c2ccccc2[C@H](Nc2cncc(Cl)c2)[C@@H](C)[C@@H]1C (racemic) [Example 22, rac-1-((2S,3R,4R)-4-((5-chloropyridin-3-yl)amino)-2,3-dimethyl-3,4-dihydroquinolin-1(2H)-yl)ethanone]
100 nM	CC(=O)N1c2ccc(N3CCNCC3)cc2[C@H](Nc2ccc(C(N)=O)cc2)[C@@H](C)[C@@H]1C [Example 571, 4-(((2S,3R,4R)-1-acetyl-2,3-dimethyl-6-(piperazin-1-yl)-1,2,3,4-tetrahydroquinolin-4-yl)amino)benzamide]
100 nM	CC(=O)N1c2ccc(N3CCCC3C)cc2[C@H](Nc2ccccc2)[C@@H](C)[C@@H]1C (mixture of isomers) [Example 81, 1-((rac-2S,3R,4R)-2,3-dimethyl-6-(2-methylpyrrolidin-1-yl)-4-(phenylamino)-3,4-dihydroquinolin-1(2H)-yl)ethanone]
100 nM	CC(=O)N1c2ccc(C3=CCOCC3)cc2[C@H](Nc2cccc(C)n2)[C@@H](C)[C@@H]1C1CC1 (racemic) [Example 85, rac-1-((2S,3R,4R)-2-cyclopropyl-6-(3,6-dihydro-2H-pyran-4-yl)-3-methyl-4-((6-methylpyridin-2-yl)amino)-3,4-dihydroquinolin-1(2H)-yl)ethanone, formic acid salt]
100 nM	CC[C@H]1[C@H](C)[C@@H](Nc2cccc(C)n2)c2cc(C(=O)NCCC#N)ccc2N1C(C)=O (racemic) [Example 283, rac-(2S,3R,4R)-1-acetyl-N-(2-cyanoethyl)-2-ethyl-3-methyl-4-((6-methylpyridin-2-yl)amino)-1,2,3,4-tetrahydroquinoline-6-carboxamide]
100 nM	COc1cc(C#N)ccc1N[C@H]1c2cc(C(N)=O)ccc2N(C(C)=O)[C@@H](C2CC2)[C@@H]1C [Example 390, (2S,3R,4R)-1-acetyl-4-((4-cyano-2-methoxyphenyl)amino)-2-cyclopropyl-3-methyl-1,2,3,4-tetrahydroquinoline-6-carboxamide]
1000 to 100000 nM	CC(=O)N1c2ccc(F)cc2[C@H](Nc2ccc(C(N)=O)cn2)[C@@H](C)[C@@H]1C1CC1 [Example 522, 6-(((2S,3R,4R)-1-acetyl-2-cyclopropyl-6-fluoro-3-methyl-1,2,3,4-tetrahydroquinolin-4-yl)amino)nicotinamide]
1000 to 100000 nM	COc1cnc(N[C@H]2c3cc(C(N)=O)ccc3N(C(C)=O)[C@@H](C3CC3)[C@@H]2C)nc1C [Example 348, (2S,3R,4R)-1-acetyl-2-cyclopropyl-4-((5-methoxy-4-methylpyrimidin-2-yl)amino)-3-methyl-1,2,3,4-tetrahydroquinoline-6-carboxamide]
100 nM	CC(=O)N1c2ccc(C(=O)NCCO)cc2[C@H](Nc2ccc(C#N)cc2)[C@@H](C)[C@@H]1C1CC1 [Example 492, (2S,3R,4R)-1-acetyl-4-((4-cyanophenyl)amino)-2-cyclopropyl-N-(2-hydroxyethyl)-3-methyl-1,2,3,4-tetrahydroquinoline-6-carboxamide]
100 nM	CC(=O)N1c2ccc(N3CCC(C)C3)cc2[C@H](Nc2ccccc2)[C@@H](C)[C@@H]1C (mixture of isomers) [Example 80, 1-((rac-2S,3R,4R)-2,3-dimethyl-6-(3-methylpyrrolidin-1-yl)-4-(phenylamino)-3,4-dihydroquinolin-1(2H)-yl)ethanone]
100 nM	CC[C@H]1[C@H](C)[C@@H](Nc2cccc(C)n2)c2cc(C(=O)NC(C)C)ccc2N1C(C)=O (racemic) [Example 285, rac-(2S,3R,4R)-1-acetyl-2-ethyl-N-isopropyl-3-methyl-4-((6-methylpyridin-2-yl)amino)-1,2,3,4-tetrahydroquinoline-6-carboxamide]
100 nM	CC(=O)N1c2ccc(-c3nnc(C)s3)cc2[C@H](Nc2ncccn2)[C@@H](C)[C@@H]1C1CC1 [Example 590, 1-((2S,3R,4R)-2-cyclopropyl-3-methyl-6-(5-methyl-1,3,4-thiadiazol-2-yl)-4-(pyrimidin-2-ylamino)-3,4-dihydroquinolin-1(2H)-yl)ethanone]
1000 to 100000 nM	CC[C@H]1[C@H](C)[C@@H](Nc2ccc(C(=O)NC)cc2)c2cc(N3CCNCC3)ccc2N1C(C)=O (racemic) [Example 220, rac-4-(((2S,3R,4R)-1-acetyl-2-ethyl-3-methyl-6-(piperazin-1-yl)-1,2,3,4-tetrahydroquinolin-4-yl)amino)-N-methylbenzamide]
1000 to 100000 nM	COc1ccc2c(n1)[C@H](Nc1cccc(C)n1)[C@@H](C)[C@H](C1CC1)N2C(C)=O (racemic) [Example 111, rac-1-((2S,3R,4R)-2-cyclopropyl-6-methoxy-3-methyl-4-((6-methylpyridin-2-yl)amino)-3,4-dihydro-1,5-naphthyridin-1(2H)-yl)ethanone]
